Measured values taken from patent US20090131406A1 (BAYER CROPSCIENCE AG, priority 2005, published 2009).

Tests used:
Test in all cases: LIVE/DEAD cytotoxicity assay, inhibition of cell proliferation
Format in all cases: cell-based, human
[1] = tested on: A375 cells; settings: Homo sapiens, A-375, 48 h, read-out: log GI50 values (M), A375 cells (converted)
Method: (§1) The compounds of the general formula (I) according to the invention were tested for a possible cytotoxic or proliferation-inhibiting activity on the human tumour cell lines HeLa, SW620 and A375 (all from ATTC, American Type Culture Collection). To this end, the cells were plated in microtitre plates from Greiner (Manufacturer No. 781092) at a cell density of 1000 cells/microtitre plate well and cultivated in cell culture medium at 37° C. under a 5% carbon dioxide atmosphere. Cell culture media and additives were purchased from Invitrogen and the foetal calf serum from Biochrom. The cell culture media for Hela and A375 cells were used as stated by ATCC (HeLa: MEM, Order No. 10370-047, with 1% sodium bicarbonate, 1% non-essential amino acids, 1% sodium pyruvate, 10% foetal calf serum, 0.1% gentamycin; A375: DMEM, Order No. 41965-039, 2% sodium bicarbonate, 1% L-Glutamax, 10% foetal calf serum, 0.1% gentamycin). The culture medium for the SW620 cells consisted of DMEM, Order No. 41965-039, 1% non-essential amino acids, 10% foetal calf serum, 0.1% gentamycin.
(§2) 24 hours after the cells had been plated in the microtitre plates, various concentrations of at most 100 μM down to a minimum concentration of 5 nM of the test compounds were added to the cells. Stock solutions of the test compounds (10 mM) were prepared in DMSO and stored at −20° C.; for the cytotoxicity tests, the test compounds were diluted in the appropriate cell culture medium.
(§3) After a further 48 hours of incubation, the cells were washed with medium and analysed with the aid of a two-colour fluorescence cytotoxicity/viability test (LIVE/DEAD viability/cytotoxicity ASSAY kit from Molecular Probes, Order No. L-3224), according to the instructions of the manufacturer. To this end, the medium was aspirated and in each case 30 μl of LIVE/DEAD reagent per microtitre plate well were added to the cells, which were then incubated for 30 minutes. The cells were then washed with PBS (phosphate-buffered saline). The number of live cells was analysed by measuring the green fluorescence of the live dye calcein-AM as a component of the LIVE/DEAD reagent using a fluorescence plate reader (Flexstation, from Molecular Devices) at an excitation wavelength of 485 nm and an emission wavelength of 525 nm (cf. Oral, H. B. Endothelium 6, (1998), 143-151).
(§4) Cells only with cell culture medium, without added test compounds, were treated in parallel and analysed as growth controls. The reference compounds used for anti-tumour agents having a cytotoxic or proliferation-inhibiting action were colchicine (from Merck/Calbiochem, Order No. 234115) and Taxol (baccatin III N-benzyl-b-phenylisoserine ester, from Merck/Calbiochem, Order No. 580555) (cf. Schiff, P. B. and Horwitz, S. B., Proceedings of the National Academy of Sciences of the U.S.A. 77, 1561-1565, 1980; Holmes, F. A. et al., Journal of the National Cancer Institute 83, 1797-1805, 1991).
(§5) The cytotoxic effects of the test compounds were expressed as logarithmic GI50 values (growth-inhibiting logarithmic concentration value at which a cell growth reduced by 50% compared to the control without test compounds was measured (cf. Xia et al., Journal of Medicinal Chemistry 44, 3932-3936, 2001; Smith, J. A. et al., Gynecologic Oncology 98, 141-145, 2005)).

[2] = tested on: SW620 cells; settings: Homo sapiens, SW-620, 48 h, read-out: log GI50 values (M), SW620 cells (converted)
Method: as §1, §2, §3, §4, §5

[3] = tested on: HeLa cells; settings: Homo sapiens, 48 h, read-out: log GI50 values (M), HeLa cells (converted)
Method: as §1
24 hours after the cells had been plated in the microtitre plates, various concentrations of at most 100 μM down to a minimum concentration of 5 nM of the test compounds were added to the cells. […]
as §3, with “To this end, the medium was aspirated and in each case 30 μl of LIVE/DEAD reagent per microtitre plate well were added to the cells, which were then incubated for 30 minutes. The cells were then washed with PBS (phosphate-buffered saline).” left out
Cells only with cell culture medium, without added test compounds, were treated in parallel and analysed as growth controls. […]

COc1cc2c(c(OC)c1OC)-c1ccc(OC)c(=O)cc1[C@@H](NC(C)=O)CC2 [Colchicine, colchicine]
GI50 [1]: 2e-08 M
GI50 [2]: 1.26e-08 M
GI50 [3]: 1.58e-08 M
